{"source": "patent US20180140578A1", "about": "“METHODS AND COMPOSITIONS FOR THE DIAGNOSIS AND SELECTIVE TREATMENT OF CANCER” (Board of Regents of the University of Texas System, priority 2016, published 2018)", "key": {"[1]": {"system": "RBM39 in UBA3 A171T HCT-116 cells", "assay": "Block of indisulam dependent RBM39 degradation, MLN4924 resistant line", "type": "cell-based, human", "conditions": "cells harboring UBA3 A171T mutation", "description": "(§1) (B) RBM39-AID is degraded in the presence of TIR1 and IAA in HCT-116 cells. (C) IAA and TIR1 dependent degradation of RBM39-AID results in cell death. Error bars represent standard errors of the mean (SEM) (n=3). […] The effect of bortezomib is attenuated in a bortezomib resistant cell line. […] The effect of MLN4924 is abrogated in an MLN4924 resistant cell line.\n(§2) The methods for generating a population of barcoded HCT-116 cells were described before (20). […] Clones that appeared after the selection was then expanded and barcode genotyped to identify six clones with unique barcodes. […] Source data for exome sequencing data is available under NCBI SRA accession SRP068238. Bortezomib resistant clones were isolated by selection with 5 nM bortezomib, and MLN4924 resistant clones with 40 nM MLN4924.\n(§3) Proteins were resolved on SDS-PAGE and transferred to 0.5 μm nitrocellulose membranes. Membranes were blocked in 5% milk TBST for 30 min, and then anti-RBM39 antibodies (HPA001591, Sigma-Aldrich) were added in 5% milk (1:5000) and incubated on a shaker overnight at 4° C. After three 5 min washes with TBST, membranes were incubated with HRP-conjugated goat anti-rabbit secondary antibody (Bio-Rad) for 2 hr at room temperature. After three 5 min washes with TBST, membranes were developed with ECL (enhanced chemiluminescence) substrates."}, "[2]": {"system": "RBM39 in parental HCT-116 cells", "assay": "Block of indisulam dependent RBM39 degradation, parental cells", "type": "cell-based, human", "description": "as §1, §3"}, "[3]": {"system": "HCT-116 cells", "assay": "Cell viability assay (CellTiter-Glo)", "type": "cell-based, human", "conditions": "for pIC50: read-out: concentration required to reduce the viability by 50% (IC50), parental HCT-116 cells; for toxicity to HCT-116 cells: at concentrations as high as 50 μM", "description": "The identity for all human cell lines in this study was confirmed by short tandem repeat (STR) analysis. In addition, all human cell lines were confirmed to be mycoplasma free using a PCR based assay (Genatlantis). HCT-116 cells (ATCC) were grown in DMEM medium with 10% FBS and 2 mM L-glutamine. Lenti-X 293T cells (Clontech) were cultured in DMEM medium with 10% FBS and 2 mM L-glutamine. H1155 cells (a gift from Adi Gazdar and John Minna, UT Southwestern) were cultured in RPMI media with 5% FBS and 2 mM L-glutamine. SF9 cells (a gift from Hongtao Yu, UT Southwestern) were cultured in SF900 II serum free media (Life Technologies).\n(§4) 12-point dose responses were performed on 96-well assay plates with cell plating (1500-4000 cell per well) on day 1, compound addition on day 2, and survival measurement on day 5. Compounds were diluted in DMSO before adding to the cells. Final DMSO concentration was 0.5%. Cell survival assay was performed using CellTiter-Glo Luminescent Cell Viability Assay kit (Promega) that measures cellular ATP content. Luminescence was recorded by EnVison multimode plate reader (Perkin Elmer). IC50 was determined with GraphPad Prism using baseline correction (by normalizing to DMSO control), the asymmetric (five parameter) equation and least squares fit."}, "[4]": {"target": "T1, RBM39-Nluc (Homo sapiens, UniProt Q14498+Q66K64)", "T1 construct": "Homology directed repair facilitates tagging of endogenous RBM39 by AID, 3xFLAG, AcGFP, or Nanoluciferase; endogenous in cells; host or cells: H1155 RBM39-Nluc knock-in cells", "assay": "RBM39-Nluc degradation by Nano-Glo luciferase assay", "type": "cell-based", "conditions": "H1155 RBM39-Nluc cells; read-out: decrease in RBM39-Nluc activity (IC50)", "description": "NanoLuc was knocked-in to the 3-prime end of the RBM39 gene using the procedure described above yielding H1155 RBM39-Nluc cells. […] Luminescence was recorded by EnVision multimode plate reader (Perkin Elmer). IC50 was determined with GraphPad Prism using baseline correction (by normalizing to DMSO control), the asymmetric (five parameter) equation and least squares fit."}, "[5]": {"system": "DCAF15-3xFLAG and mutant RBM39Δ150 (M265L, E271Q, P272S)", "assay": "RBM39Δ150 pulldown assay, mutant RBM39", "type": "binding, human", "conditions": "M265L, E271Q, P272S", "description": "RBM39 lacking the first 150 amino acids after the start codon (RBM39Δ150) was cloned into the pFastBac1 (Life Technologies) vector. Site-directed Mutagenesis of RBM39 was performed using Q5 site-directed mutagenesis kit (NEB). DCAF15-GST (C-terminal GST tag) and DDB1 were also cloned into pFastBac1. The production of baculovirus was carried out following vendor's instructions. Protein was expressed in SF9 cells by infection with each protein specific baculovirus, and cells were harvested 48 hr later and frozen in liquid nitrogen. For purification of RBM39Δ150, frozen cells were pulverized by cryomill and resuspended in lysis buffer (40 mM Tris, pH 7.5, 225 mM NaCl, 1× […] Protease inhibitor). The lysate was passed through a 22 gauge needle 2 times followed by ultracentrifugation at 25000 rpm for 30 min. Clarified lysate was incubated with Ni-NTA agarose (Qiagen) for 30 min with rotation at 4° C. Resin and bound protein were washed with wash buffer 1 (40 mM Tris, pH 7.5, 225 mM NaCl) followed by wash buffer 2 (40 mM Tris, pH 7.5, 20 mM imidazole, 225 mM NaCl). Proteins were eluted with elution buffer (40 mM Tris, pH 7.5, 300 mM imidazole, 225 mM NaCl) and concentrated to 0.5 ml. Concentrated proteins were then fractionated on Superdex 200 Increase 10/300 GL (GE Healthcare). […]"}, "[6]": {"target": "T2, DCAF15-3xFLAG and RBM39Δ150 (Homo sapiens, UniProt Q14498+Q66K64)", "T2 construct": "Full-length cDNAs encoding CUL4A, CUL4B, DCAF15, and DDB1 were cloned into pLVX IRES Puro; made in house; host or cells: RBM39Δ150: Sf9 (baculovirus); DCAF15-3xFLAG: anti-FLAG beads from HCT-116 or 293T cells stably expressing it", "T2 sequence (Q66K64 whole entry, stated change not applied)": "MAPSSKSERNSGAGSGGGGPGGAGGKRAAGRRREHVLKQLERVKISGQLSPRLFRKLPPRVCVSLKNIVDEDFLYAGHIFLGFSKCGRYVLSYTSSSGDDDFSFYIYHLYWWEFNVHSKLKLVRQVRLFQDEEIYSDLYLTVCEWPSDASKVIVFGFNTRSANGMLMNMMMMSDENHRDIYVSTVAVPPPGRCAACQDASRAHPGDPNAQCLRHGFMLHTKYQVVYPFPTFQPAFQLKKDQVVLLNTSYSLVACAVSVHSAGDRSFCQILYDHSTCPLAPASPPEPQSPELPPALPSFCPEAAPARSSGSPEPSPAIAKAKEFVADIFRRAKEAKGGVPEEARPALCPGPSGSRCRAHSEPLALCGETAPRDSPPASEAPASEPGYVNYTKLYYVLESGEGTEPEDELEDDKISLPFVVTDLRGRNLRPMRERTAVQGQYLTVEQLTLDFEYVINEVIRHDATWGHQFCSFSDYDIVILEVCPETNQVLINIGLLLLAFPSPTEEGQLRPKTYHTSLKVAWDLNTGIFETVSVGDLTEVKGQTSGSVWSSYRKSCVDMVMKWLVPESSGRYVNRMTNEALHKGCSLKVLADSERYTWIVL", "T2 sequence (Q14498 151-530 limits assumed, stated change not applied)": "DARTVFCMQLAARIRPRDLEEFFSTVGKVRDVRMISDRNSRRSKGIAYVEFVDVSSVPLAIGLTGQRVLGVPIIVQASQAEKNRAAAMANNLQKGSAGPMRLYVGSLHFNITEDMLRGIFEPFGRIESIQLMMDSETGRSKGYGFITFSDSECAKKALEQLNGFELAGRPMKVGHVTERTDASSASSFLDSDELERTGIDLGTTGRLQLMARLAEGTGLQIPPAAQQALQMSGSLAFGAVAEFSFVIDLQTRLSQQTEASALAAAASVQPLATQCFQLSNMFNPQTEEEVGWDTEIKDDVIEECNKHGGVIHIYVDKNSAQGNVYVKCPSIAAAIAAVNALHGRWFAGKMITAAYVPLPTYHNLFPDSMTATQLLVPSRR", "T2 sequence (Q16531 whole entry partner)": "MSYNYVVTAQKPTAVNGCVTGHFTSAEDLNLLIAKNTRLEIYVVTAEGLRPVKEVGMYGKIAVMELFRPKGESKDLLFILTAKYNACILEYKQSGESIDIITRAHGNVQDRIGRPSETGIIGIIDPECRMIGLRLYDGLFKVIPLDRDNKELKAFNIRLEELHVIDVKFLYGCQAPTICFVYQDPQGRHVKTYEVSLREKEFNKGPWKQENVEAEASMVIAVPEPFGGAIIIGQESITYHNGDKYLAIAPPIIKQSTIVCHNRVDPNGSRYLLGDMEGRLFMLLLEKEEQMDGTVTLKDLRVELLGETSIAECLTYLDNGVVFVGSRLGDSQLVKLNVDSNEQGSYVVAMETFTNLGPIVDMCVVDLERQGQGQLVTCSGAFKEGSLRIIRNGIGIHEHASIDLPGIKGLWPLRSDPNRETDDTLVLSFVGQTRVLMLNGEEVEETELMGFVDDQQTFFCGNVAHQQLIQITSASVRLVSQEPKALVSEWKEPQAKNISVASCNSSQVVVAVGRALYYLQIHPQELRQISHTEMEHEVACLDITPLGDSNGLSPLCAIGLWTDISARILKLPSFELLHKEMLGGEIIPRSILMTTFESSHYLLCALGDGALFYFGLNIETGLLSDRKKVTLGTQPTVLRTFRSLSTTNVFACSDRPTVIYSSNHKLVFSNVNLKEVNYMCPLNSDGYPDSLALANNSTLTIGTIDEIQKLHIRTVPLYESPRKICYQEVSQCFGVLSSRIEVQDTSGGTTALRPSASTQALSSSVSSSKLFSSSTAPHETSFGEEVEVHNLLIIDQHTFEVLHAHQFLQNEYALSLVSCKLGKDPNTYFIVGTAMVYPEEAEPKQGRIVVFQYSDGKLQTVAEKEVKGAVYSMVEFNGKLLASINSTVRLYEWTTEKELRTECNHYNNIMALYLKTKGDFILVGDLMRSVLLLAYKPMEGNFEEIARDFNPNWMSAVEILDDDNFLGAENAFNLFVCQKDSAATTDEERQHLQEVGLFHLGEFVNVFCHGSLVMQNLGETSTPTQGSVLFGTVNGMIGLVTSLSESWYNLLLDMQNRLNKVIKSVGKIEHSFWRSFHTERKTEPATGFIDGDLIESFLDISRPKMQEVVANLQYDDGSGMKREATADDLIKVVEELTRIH", "assay": "RBM39Δ150 pulldown assay", "type": "binding", "conditions": "wild type RBM39Δ150", "description": "RBM39 lacking the first 150 amino acids after the start codon (RBM39Δ150) was cloned into the pFastBac1 (Life Technologies) vector. Site-directed Mutagenesis of RBM39 was performed using Q5 site-directed mutagenesis kit (NEB). DCAF15-GST (C-terminal GST tag) and DDB1 were also cloned into pFastBac1. The production of baculovirus was carried out following vendor's instructions. Protein was expressed in SF9 cells by infection with each protein specific baculovirus, and cells were harvested 48 hr later and frozen in liquid nitrogen. For purification of RBM39Δ150, frozen cells were pulverized by cryomill and resuspended in lysis buffer (40 mM Tris, pH 7.5, 225 mM NaCl, 1× […] Protease inhibitor). The lysate was passed through a 22 gauge needle 2 times followed by ultracentrifugation at 25000 rpm for 30 min. Clarified lysate was incubated with Ni-NTA agarose (Qiagen) for 30 min with rotation at 4° C. Resin and bound protein were washed with wash buffer 1 (40 mM Tris, pH 7.5, 225 mM NaCl) followed by wash buffer 2 (40 mM Tris, pH 7.5, 20 mM imidazole, 225 mM NaCl). Proteins were eluted with elution buffer (40 mM Tris, pH 7.5, 300 mM imidazole, 225 mM NaCl) and concentrated to 0.5 ml. Concentrated proteins were then fractionated on Superdex 200 Increase 10/300 GL (GE Healthcare). RBM39Δ150 and mutants eluted at 14.8 ml after injection and were stored at −80° C. in 40 mM Tris, pH 7.5, 225 mM NaCl. For purification of DCAF15-GST/DDB1, Sf9 cells co-infected with DCAF15-GST and DDB1 baculoviruses were lysed in PBS supplemented with 0.1% NP40, 1× […] Protease inhibitors, and 0.5 mM PMSF. The lysate was passed through a 22 gauge needle 2 times followed by centrifugation at 7000 rpm for 15 min. Clarified lysate was incubated with Glutathione Sepharose 4B resin (GE healthcare) for 30 min with rotation at 4° C. Resin was washed with PBS for three times before elution with 50 mM Tris, 10 mM glutathione, pH 8.\nHCT-116 cells stably expressing DDB1-3xFLAG, CUL4A-3xFLAG, CUL4B-3xFLAG, or to DCAF15-3xFLAG were lysed in 1×PBS, 0.1% NP40, and 1× […] protease inhibitor (1 ml per […] plate). […]"}, "[7]": {"system": "HCT-116 RBM39 G268V knock-in cells", "assay": "Cell viability assay, RBM39 G268V knock-in", "type": "cell-based, human", "conditions": "at concentrations as high as 50 μM", "description": "as §4\nsgRNA targeting RBM39 (5′-[…]-3′) was cloned into the pSpCas9(BB)-2A-Puro (PX459) vector (Addgene 62988). For RBM39 G268V knock-in, 1 million HCT-116 or H1155 cells were nucleofected (using 4D-Nucleofector, Lonza) with PX459-RBM39 sgRNA and the single-stranded oligo 5′-[…] […] […] […]-3′ (SEQ ID NO: 13)."}, "[8]": {"system": "RBM39 in PSMB5 A108T HCT-116 cells", "assay": "Block of indisulam dependent RBM39 degradation, bortezomib resistant line", "type": "cell-based, human", "conditions": "PSMB5 A108T cell line", "description": "as §1, §2, §3"}, "[9]": {"system": "RBM39-AID", "assay": "Auxin induced degradation of RBM39 (western blotting)", "type": "cell-based, human", "conditions": "cells that express both RBM39-AID and TIR1", "description": "(§5) TIR1 cDNA with a V5 tag sequence appended to its 3′ end was cloned into pLVX IRES zsGreenland packaged into lentivirus to infect both parental HCT-116 cells and RBM39-AID-3xFLAG knock-in cells. Following lentiviral delivery of TIR1, cells with top 5% strongest zsGreen expression were sorted by FACS. TIR1-V5 expression was confirmed by western blot with HRP conjugated anti-VS (Sigma-Aldrich, V2260, 1:5000). For examination of RBM39-AID-3xFLAG degradation, cells were treated with 500 μM IAA for 4 hours before being lysed for western blotting. For IAA dose response curves, cells were treated with various concentrations of IAA for 72 hours and ATP levels were quantified using Cell-Titer Glo (Promega)."}, "[10]": {"system": "HCT-116 cells expressing RBM39-AID and TIR1", "assay": "IAA dose response, cell viability (Cell-Titer Glo)", "type": "cell-based, human", "conditions": "cells that express both RBM39-AID and TIR1", "description": "as §5"}, "[11]": {"system": "indisulam resistant HCT-116 clones", "assay": "Cell viability assay, indisulam resistant clones", "type": "cell-based, human", "conditions": "six indisulam resistant clones", "description": "as §2, §4"}}, "note": "pIC50: −log10 of the molar value. Where two headings read alike, the source gives them in different places."}
{"smiles": "NS(=O)(=O)OC[C@@H]1C[C@@H](n2ccc3c(N[C@H]4CCc5ccccc54)ncnc32)C[C@@H]1O", "note": "[MLN4924]", "values": [{"measurement": "effect on degradation of RBM39 in response to indisulam", "setting": "[1]", "result": "did not observe this effect"}, {"measurement": "effect on degradation of RBM39 in response to indisulam", "setting": "[2]; HCT-116 cells", "result": "blocked the degradation of RBM39"}]}
{"smiles": "Nc1ccc(S(=O)(=O)Nc2cnc3c(Cl)cccc3n2)cc1", "note": "[CQS, chloroquinoxaline sulfonamide]", "values": [{"measurement": "pIC50", "setting": "[3]; Homo sapiens", "result": 5.15}, {"measurement": "DC50", "setting": "[4]", "result": 2.4, "unit": "µM"}]}
{"smiles": "CC(=O)Nc1nnc(S(N)(=O)=O)s1", "note": "[acetazolamide]", "values": [{"measurement": "toxicity to HCT-116 cells", "setting": "[3]", "result": "non-toxic"}]}
{"smiles": "O=C(NS(=O)(=O)c1ccc(Br)s1)c1ccc(Cl)cc1Cl", "note": "[tasisulam]", "values": [{"measurement": "pIC50", "setting": "[3]", "result": 5.19}, {"measurement": "recruitment of indisulam-resistant mutants of RBM39 to DCAF15", "setting": "[5]", "result": "not effectively recruited"}, {"measurement": "recruitment of RBM39Δ150 to DCAF15", "setting": "[6]", "result": "recruit RBM39Δ150 to DCAF15 in a dose-dependent manner"}, {"measurement": "sensitivity of cell line carrying RBM39 G268V", "setting": "[7]", "result": "insensitive"}, {"measurement": "pIC50", "setting": "[4]", "result": 5.25}]}
{"smiles": "CC(C)C[C@H](NC(=O)[C@H](Cc1ccccc1)NC(=O)c1cnccn1)B(O)O", "note": "[bortezomib]", "values": [{"measurement": "level of bortezomib required for comparable rescue of RBM39 levels, relative to parental", "setting": "[8]", "result": 10, "unit": "fold"}, {"measurement": "concentration of bortezomib that blocked the degradation of RBM39 in response to indisulam", "setting": "[2]; parental cells, 2 h pretreatment, then 6 h 2 μM indisulam", "result": 10, "unit": "nM"}]}
{"smiles": "CC1(C)O[C@@H]2[C@@H](CO[C@@]3(COS(N)(=O)=O)OC(C)(C)O[C@@H]23)O1", "note": "[topirimate, topiramate]", "values": [{"measurement": "toxicity to HCT-116 cells", "setting": "[3]", "result": "non-toxic"}]}
{"smiles": "O=C(O)Cc1c[nH]c2ccccc12", "note": "[IAA, 3-indoleacetic acid]", "values": [{"measurement": "RBM39 levels", "setting": "[9]", "result": "decrease in RBM39 levels"}, {"measurement": "cell viability", "setting": "[10]", "result": "loss in cell viability"}]}
{"smiles": "CC(=O)O[C@H]1C(=O)[C@@]2(C)[C@H]([C@H](OC(=O)c3ccccc3)[C@]3(O)C[C@H](OC(=O)[C@H](O)[C@@H](NC(=O)c4ccccc4)c4ccccc4)C(C)=C1C3(C)C)[C@]1(OC(C)=O)CO[C@@H]1C[C@@H]2O", "note": "[paclitaxel]", "values": [{"measurement": "resistance of indisulam resistant clones to paclitaxel", "setting": "[11]", "result": "None of the clones were resistant"}]}
